# Laboratory results: patent US20250101061A1, “UPREGULATION OF FERRITIN HEAVY CHAIN 1 EXPRESSION” (HBC Immunology Inc., priority 2022, published 2025)
# “And” between values parts separate entries of the source, which are not always exact repeats. Equal values may be shown once. Peptide text beside a SMILES is read from it.
# Legend:
# [1] = test system: Immortalized human astrocytes (P10251-IM); test: Protection of human astrocytes from hemin-induced injury (LDH release assay); format: cell-based; conditions: for % LDH Release (individual runs) / % LDH Release, Average: 24 hr pre-treatment: SPH 160 μM, oligopeptide 10 μM, collagen control 160 μM, then 30 μM hemin 6 hrs, scaled to 0.1% Triton X-100 lysis; for mortality of astrocytes after hemin: oligopeptide 10 μM pre-treatment, hemin-induced oxidative damage
# Method: (§1) Immortalized human astrocytes (P10251-IM) were obtained from Innoprot, Spain and prepared under conditions recommended by the supplier. At 90% confluency, the P10251-IM cells were rinsed with 8 ml of DPBS and 2 ml of the T/E Solution (prepared as per Innoprot procedure), then added into an […] and gently rocked so that the P10251-IM cells would be completely covered. The flask was subsequently incubated at 37° C. for 2 minutes. Then 5 ml of fetal bovine serum (FBS) and the T/E solution from the flask were added into a 50 ml conical centrifuge tube. The flask was incubated for an additional 2 minutes, and the P10251-IM cells dislodged from the surface by gentle tapping. The P10251-IM cells were then transferred to the 50 ml conical centrifuge tube with 5 ml of TNS solution. The tube was centrifuged at 1000 rpm for 5 minutes. Then the P10251-IM cells were resuspended in the culture medium, counted, and plated in a poly-L-lysine-coated culture plate at 1×10^4 cell density. Cells were tested after they were incubated for 21 days in vitro.
# (§2) Confluent P10251-IM cell cultures were washed and then pre-treated with medium alone, or medium supplemented with SPH (160 μM) or an oligopeptide (10 μM) for 24 hr at 37° C. Commercial collagen peptide (Vital Protein) at 160 μM concentration and sterile water were used as negative controls. The P10251-IM cells were subsequently treated with 30 μM hemin in serum-free medium consisting of MEM with 10 mM glucose (MEM10) for 6 hrs.
# P10251-IM astrocyte cultures that were […] with 30 μM hemin sustained widespread cell injury. Cell viability was quantified using the lactate dehydrogenase (LDH) release assay as previously described (Chen and Regan, Curr Neurovasc Res, 2:189-196, 2005). Briefly, quantification of the protective effects of SPH and oligopeptides were assessed by determining the mean percentage LDH released, scaled to the complete lysis control culture which was treated with 0.1% Triton X-100 (considered to release 100% of culture LDH).
# FTH1 = FTH1 gene expression in human skeletal muscle cells (HSkMC) by qRT-PCR; format: cell-based; conditions: for FTH1 Fold Change at 0.625 μM / FTH1 Fold Change at 1.25 μM / FTH1 Fold Change at 2.5 μM / FTH1 Fold Change at 5 μM / FTH1 Fold Change at 10 μM: average of triplicate (SD ≤ 0.3); for FTH1 Fold Change, Average / FTH1 Fold Change (individual runs): SPH 100 μM or synthetic oligopeptide 10 μM, about 12 hours; for FTH1 Fold Change (individual runs): triplicate runs
# Method: A cell line derived from human skeletal muscle was selected to assess the effect of SPH and oligopeptides on gene expression. HSkMC (PCS-950-010) obtained from ATCC (Manassas, VA) were propagated in Mesenchymal Stem Cell Basal Medium (ATCC) reduced serum medium supplemented with Primary Skeletal Cell Muscle Growth Kit (ATCC) that contains L-Glutamine (10 mM), Dexamethasone ([…]), rh epidermal growth factor (5 ng/ml), rh FGF-b (5 ng/ml), rh Insulin (25 μg/mL), and fetal bovine serum (4%), on 100 mm cell culture dishes. For this assay, the HSkMC cells were seeded in 24 well plates at a cell density of 1×10^4 cells/cm^2 and maintained at 37° C. in a humidified 5% CO2 atmosphere. […]
# Total RNA was extracted using the UPzol reagent for the cell pellets, followed by a DNAse treatment (DNAse TURBO), using the manufacturer's protocols. Complementary DNA (cDNA) was synthesized with the High Capacity cDNA Reverse Transcription Kit (Applied Biosystems) using random hexamers. Gene expression levels were measured by qRT-PCR.
# 1 μl of cDNA corresponding to 50 ng of reverse transcribed RNA was amplified by Qpcr (QuantStudio™ 6 Flex Real-Time PCR System), using the TaqMan™ Universal PCR Master Mix (Catalog No. 4304437) and a TaqMan™ assay (Roche Molecular Systems, Inc., Pleasanton, CA).
# FTH1 gene expression was estimated relative to expression of the housekeeping gene, beta-actin (ACTB), following the standard formula: […]
# 2-ΔCt. TaqMan™ probe IDs used were: (i) FTH1, Hs01694011_s1; and (ii) ACTB, Hs01060665_g1. All experiments were run in triplicate.
# H-Ferritin = H-Ferritin gene expression in hemin-treated astrocytes by qRT-PCR; format: cell-based, human; conditions: oligopeptide 10 μM; for H-Ferritin Fold Change, Average / H-Ferritin Fold Change (individual runs): SPH 160 μM, collagen control 160 μM, after 6 hr hemin; for H-Ferritin Fold Change (individual runs): GAPDH housekeeping, normalized to control wells
# Method: as §1, §2
# L-Ferritin and H-Ferritin gene expression were then quantified. Briefly, after 6 hr incubation with hemin, the astrocytes were lysed, and RNA was extracted using the Qiagen lipid mini kit. The expression of both genes (L-ferritin and H-ferritin) involved in iron homeostasis was assessed by qRT-PCR. Fold changes were calculated using the ΔCt method, using GAPDH as the housekeeping gene. Fold changes were normalized to expression levels in control wells. Experiments were run in triplicate.
# The primers used for amplification of cDNA were: […]
compound,measurement,setting,value
"CSCC[C@H](NC(=O)[C@@H]1CCCN1C(=O)[C@H](CCCCN)NC(=O)[C@H](CC(=O)O)NC(=O)[C@H](CO)NC(=O)[C@H](CCC(=O)O)NC(=O)[C@H](CCC(=O)O)NC(=O)[C@@H](N)CCCNC(=N)N)C(=O)N[C@@H](Cc1ccc(O)cc1)C(=O)O [FT-006, REESDKPMY] (H-REESDKPMY-OH)",% LDH Release (individual runs),[1],40% and 39% and 42%
same,"% LDH Release, Average",[1],40%
same,mortality of astrocytes after hemin,[1],40%
same,FTH1 Fold Change at 0.625 μM,FTH1,1.3 fold
same,FTH1 Fold Change at 1.25 μM,FTH1,2.2 fold
same,FTH1 Fold Change at 2.5 μM,FTH1,3.5 fold
same,FTH1 Fold Change at 5 μM,FTH1,4.2 fold
same,FTH1 Fold Change at 10 μM,FTH1,4.9 fold
same,"FTH1 Fold Change, Average",FTH1,4.7 fold
same,FTH1 Fold Change (individual runs),FTH1,4.5 fold and 4.7 fold and 4.9 fold
same,"H-Ferritin Fold Change, Average",H-Ferritin,3.0 fold
same,H-Ferritin Fold Change (individual runs),H-Ferritin,2.9 fold (2×) and 3.1 fold
same,increases in H-Ferritin gene expression,H-Ferritin,3.0 fold
"N=C(N)NCCC[C@H](NC(=O)[C@@H]1CCCN1)C(=O)N[C@@H](CCC(=O)O)C(=O)N[C@@H](CCC(=O)O)C(=O)N[C@@H](CO)C(=O)N[C@@H](CC(=O)O)C(=O)N[C@@H](CCCCN)C(=O)N1CCC[C@H]1C(=O)O [FT-007, PREESDKP] (H-PREESDKP-OH)",% LDH Release (individual runs),[1],35% and 38% and 34%
same,"% LDH Release, Average",[1],36%
same,mortality of astrocytes after hemin,[1],36%
same,FTH1 Fold Change at 0.625 μM,FTH1,1.1 fold
same,FTH1 Fold Change at 1.25 μM,FTH1,1.0 fold
same,FTH1 Fold Change at 2.5 μM,FTH1,1.1 fold
same,FTH1 Fold Change at 5 μM,FTH1,1.9 fold
same,FTH1 Fold Change at 10 μM,FTH1,2.8 fold
same,"FTH1 Fold Change, Average",FTH1,2.6 fold
same,FTH1 Fold Change (individual runs),FTH1,2.5 fold and 2.6 fold (2×)
same,"H-Ferritin Fold Change, Average",H-Ferritin,3.3 fold
same,H-Ferritin Fold Change (individual runs),H-Ferritin,3.5 fold and 3.2 fold and 3.3 fold
same,increases in H-Ferritin gene expression,H-Ferritin,3.3 fold
"CC(C)C[C@H](NC(=O)[C@H](CCC(=O)O)NC(=O)CNC(=O)[C@H](CO)NC(=O)[C@H](CCC(=O)O)NC(=O)[C@H](CCC(=O)O)NC(=O)[C@@H](N)CCCNC(=N)N)C(=O)O [FT-008, REESGEL] (H-REESGEL-OH)",% LDH Release (individual runs),[1],29% and 27% and 31%
same,"% LDH Release, Average",[1],29%
same,mortality of astrocytes after hemin,[1],29%
same,FTH1 Fold Change at 0.625 μM,FTH1,1.1 fold
same,FTH1 Fold Change at 1.25 μM,FTH1,1.0 fold
same,FTH1 Fold Change at 2.5 μM,FTH1,2.1 fold
same,FTH1 Fold Change at 5 μM,FTH1,2.7 fold
same,FTH1 Fold Change at 10 μM,FTH1,3.8 fold
same,"FTH1 Fold Change, Average",FTH1,3.6 fold
same,FTH1 Fold Change (individual runs),FTH1,3.9 fold and 3.3 fold and 3.7 fold
same,"H-Ferritin Fold Change, Average",H-Ferritin,4.2 fold
same,H-Ferritin Fold Change (individual runs),H-Ferritin,4.1 fold (2×) and 4.4 fold
same,increases in H-Ferritin gene expression,H-Ferritin,4.0 fold
